Data published in patent publication US7384912B2, “Treatment of bone disorders with skeletal anabolic drugs” (Osteotrophin, LLC, priority 2002, dated 2008).
Where two headings read alike, the source gives them in different places. Marks after values point to notes of the source that are not given here. No end group written: not given here.

What was measured:
[1] = biological target: T1, PTH/PTHrP receptors in human renal cortical membranes (RCM) (Homo sapiens, UniProt Q03431); experiment: Competition binding of 125I-(Tyr36)hPTHrP-(1-36)NH2 to human renal cortical membranes
T1 sequence (Q03431 27-593): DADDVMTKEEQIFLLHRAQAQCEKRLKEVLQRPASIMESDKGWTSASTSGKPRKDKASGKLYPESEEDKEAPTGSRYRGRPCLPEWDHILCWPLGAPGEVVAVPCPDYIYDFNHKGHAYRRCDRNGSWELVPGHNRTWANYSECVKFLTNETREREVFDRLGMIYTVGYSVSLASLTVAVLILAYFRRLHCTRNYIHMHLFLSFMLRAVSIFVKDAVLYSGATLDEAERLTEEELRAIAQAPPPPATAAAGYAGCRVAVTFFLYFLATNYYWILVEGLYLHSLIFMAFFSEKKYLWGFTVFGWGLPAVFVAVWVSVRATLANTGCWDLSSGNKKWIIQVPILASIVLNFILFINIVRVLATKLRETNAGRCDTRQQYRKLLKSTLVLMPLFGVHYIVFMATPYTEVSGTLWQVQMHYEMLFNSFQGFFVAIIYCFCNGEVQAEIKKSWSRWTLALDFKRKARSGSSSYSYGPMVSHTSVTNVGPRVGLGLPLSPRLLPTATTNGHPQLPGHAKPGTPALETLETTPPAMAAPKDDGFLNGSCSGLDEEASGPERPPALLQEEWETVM
Experimental: All steps were performed in the presence of the following protease inhibitors: aprotinin [10 Kallikrein inhibitor units (KIU/ml], pepstatin (5 μg/ml), leupeptin (45 μg/ml), and phenylmethanesulfanylfluoride (10 μg/ml). Normal human kidney cortex was from four separate nephrectomy specimens removed for localized transitional cell carcinoma, renal cell carcinoma, or benign cysts. Renal function in all individuals was normal as assessed by serum creatinine and pyelography. Membranes were pooled, aliquoted, and stored at −70° C. for later use.
Human RCM were added to a final concentration of 90 μg/ml. […] The incubation time of 30 min was used for subsequent equilibrium binding competition studies.
(§1) Statistical differences were assessed by paired and unpaired two-tailed Student's t test.

[2] = system: adenylate cyclase in SaOS-2 intact cells; experiment: Adenylate cyclase assay in SaOS-2 intact cells; assay type: cell-based, human; settings: 15° C., 60 min
Experimental: Adenylate cyclase-stimulating activity was examined in confluent SAOS-2 cells as previously described for ROS 17/2.8 cells (Merendino et al., Science 231:388-390, (1986)), with the following modification. The intact cell assay was conducted at 15° C., the same conditions employed for binding to intact SaOS-2 cells (vide supra). […] Dose response curves for each peptide were thus generated using 60 min incubations at 15° C. under binding assay conditions.
as §1

[3] = system: ovariectomized (OVX) rats; experiment: Biomechanical measures of strength in ovariectomized rats; assay type: in vivo, rat; settings: 40 μg/kg/day s.c. once daily
[4] = system: patients with osteoporosis; settings: cited from earlier work
[5] = system: ovariectomized (OVX) rats; experiment: Bone mass measurements in ovariectomized rats; assay type: in vivo, rat; design: Left Femur Length: unit not given here; settings: 40 μg/kg/day s.c. once daily
[6] = system: ovariectomized (OVX) rats; experiment: Bone histomorphometry of the right proximal tibia in ovariectomized rats; assay type: in vivo, rat; design: Trabecular Number Tb.N.: unit not given here; settings: for Apposition Rate MAR / Bone Formation Rate BFR/BS / Mineralizing Surface MS/BS / Osteoclast Surface Oc.PM / Resorbing Surface E.PM / Trabecular Area Tb.A. / Trabecular Number Tb.N. / Trabecular Space Tb.Sp. / Trabecular Thickness Tb.Th.: 40 μg/kg/day s.c. once daily
[7] = biological target: T2, PTH/PTHrP receptors on SaOS-2 intact cells (Homo sapiens, UniProt Q03431); experiment: Competition binding of 125I-(Tyr36)hPTHrP-(1-36)NH2 to SaOS-2 intact cells
T2 sequence (Q03431 27-593): T1 sequence (Q03431 27-593)
Experimental: The medium was changed every other day, and studies were performed at 5-7 days post confluence. Cell numbers were determined using a Coulter counter.
Binding studies were conducted at 15° C. in the presence of chymostatin (100 μg/ml) and bacitracin (200 μg/ml). […] The incubation time of 150 min was therefore used for competitive binding studies.

[8] = biological target: T3, PTH/PTHrP receptors in SaOS-2 membranes (Homo sapiens, UniProt Q03431); experiment: Competition binding of 125I-(Tyr36)hPTHrP-(1-36)NH2 to SaOS-2 membranes; settings: 30° C., 60 min
T3 sequence (Q03431 27-593): T1 sequence (Q03431 27-593)
Experimental: Briefly, postconfluent cells in 150 cm^2 flasks were scraped into membrane buffer [10 mM Tris HCl (pH 7.5), 0.2 mM MgCl2, 0.5 mM EGTA, 1 mM dithiothreitol, leupeptin 45 μg/ml, pepstatin 5 μg/ml, aprotinin 10 KIU/ml, and phenylmethane sulfanyl-fluoride 10 μg/ml] at 0° C. Cell disruption was achieved by sonification and the suspension was centrifuged at 13,000×g for 15 min at 4° C. […] The suspension was layered onto a cushion of the membrane buffer containing 45% sucrose and centrifuged at 70,000×g for 30 min at 4° C. […] Protein concentrations were determined by the method of Lowry using BSA as standard.
The binding assay for SaOS-2 membranes was conducted as for human RCM. Membranes were added to a final concentration of 112.5 μg/ml and specific binding reached equilibrium by 60 min at 30° C.

Molecule: SVSEMQLMHNLGEHRHTVERQDWLQMKLQDVHSA-NH2 [cPTH-(1-34)NH2, Chicken PTH-(1-34)amide]
- IC50 ([1]; human RCM, 30° C., 30 min, read-out: Binding (IC50) Kidney membranes): 21.5 ± 8.5 nM

Molecule: hPTH-(1-34)
- EC50 [2]: 1.6 nM
- Femur Neck Ultimate Load, (Fu) ([3]; 30 days): 139 ± 3^ac N
- Mid-Femur Cortical Thickness (t) ([3]; 30 days): 0.64 ± 0.02^ac mm
- Mid-Femur Moment of Inertia (I) ([3]; 30 days): 4.5 ± 0.2 mm^4
- Mid-Femur Stiffness (S) ([3]; 30 days): 571 ± 13 N/mm
- Mid-Femur Toughness (u) ([3]; 30 days): 6.0 ± 0.3^c MJ/m^3
- Mid-Femur Ultimate Load (Fu) ([3]; 30 days): 185 ± 6^ac N
- Mid-Femur Ultimate Stress (Su) ([3]; 30 days): 229 ± 7 MPa
- Mid-Femur Work to Failure (U) ([3]; 30 days): 63 ± 4 mJ
- Mid-Femur Young's Modulus (E) ([3]; 30 days): 9.1 ± 0.3 Gpa
- Femur Neck Ultimate Load, (Fu) ([3]; 90 days): 146 ± 4^ac N
- Mid-Femur Cortical Thickness (t) ([3]; 90 days): 0.71 ± 0.02^ac mm
- Mid-Femur Moment of Inertia (I) ([3]; 90 days): 4.5 ± 0.1 mm^4
- Mid-Femur Stiffness (S) ([3]; 90 days): 641 ± 14^ac N/mm
- Mid-Femur Toughness (u) ([3]; 90 days): 5.7 ± 0.3^a MJ/m^3
- Mid-Femur Ultimate Load (Fu) ([3]; 90 days): 209 ± 4^ac N
- Mid-Femur Ultimate Stress (Su) ([3]; 90 days): 251 ± 7^ac MPa
- Mid-Femur Work to Failure (U) ([3]; 90 days): 62 ± 3^a mJ
- Femur Neck Ultimate Load, (Fu) ([3]; 180 days): 147 ± 6^ac N
- Mid-Femur Cortical Thickness (t) ([3]; 180 days): 0.89 ± 0.01^ac mm
- Mid-Femur Moment of Inertia (I) ([3]; 180 days): 5.4 ± 0.3^ac mm^4
- Mid-Femur Stiffness (S) ([3]; 180 days): 814 ± 31^ac N/mm
- Mid-Femur Toughness (u) ([3]; 180 days): 5.0 ± 0.3^ac MJ/m^3
- Mid-Femur Ultimate Load (Fu) ([3]; 180 days): 241 ± 9^ac N
- Mid-Femur Ultimate Stress (Su) ([3]; 180 days): 251 ± 8^ac MPa
- Mid-Femur Work to Failure (U) ([3]; 180 days): 61 ± 4^ac mJ
- increase in urinary hydroxyproline and pyridinolines ([4]; at three months (Finkelstein et al.)): approximately 200%
- increase in resorption assessed using urinary NIX ([4]; at three months (Lindsay et al.)): 25%
- increase in lumbar spine bone mineral density ([4]; multiple studies): 10-15%
- increase in lumbar spine trabecular bone density by QCT ([4]; one study (Roe et al.)): ≤ 80%
- increase in spine bone mineral density by DXA ([4]; one study (Roe et al.)): ≤ 30%
- Left Femur BMC ([5]; 30 days): 0.340 ± 0.011^a,c
- Left Femur BMD ([5]; 30 days): 0.200 ± 0.004^a
- Left Femur Length ([5]; 30 days): 34.9 ± 0.3
- Left Femur X Area ([5]; 30 days): 1.68 ± 0.04^c
- Radius Ash Weight ([5]; 30 days): 60 ± 1^c mg
- Whole Body BMC ([5]; 30 days): 64 ± 3^c
- Left Femur BMC ([5]; 90 days): 0.401 ± 0.010^a,c
- Left Femur BMD ([5]; 90 days): 0.232 ± 0.005^a,c
- Left Femur Length ([5]; 90 days): 35.7 ± 0.2^c
- Left Femur X Area ([5]; 90 days): 1.73 ± 0.03^c
- Radius Ash Weight ([5]; 90 days): 66 ± 1^a,c mg
- Whole Body BMC ([5]; 90 days): 69 ± 3^c
- Left Femur BMC ([5]; 180 days): 0.451 ± 0.012^a,c
- Left Femur BMD ([5]; 180 days): 0.234 ± 0.004^a,c
- Left Femur Length ([5]; 180 days): 35.6 ± 0.3^c
- Left Femur X Area ([5]; 180 days): 1.84 ± 0.04^a,c
- Radius Ash Weight ([5]; 180 days): 72 ± 2^a,c mg
- Whole Body BMC ([5]; 180 days): 71 ± 3^c
- Apposition Rate MAR ([6]; 30 days): 2.4 ± 0.1^c μm/d
- Bone Formation Rate BFR/BS ([6]; 30 days): 1.18 ± 7^a,c μm/d
- Mineralizing Surface MS/BS ([6]; 30 days): 49 ± 2^a,c %
- Osteoclast Surface Oc.PM ([6]; 30 days): 2.3 ± 0.6%
- Resorbing Surface E.PM ([6]; 30 days): 8.6 ± 1.2%
- Trabecular Area Tb.A. ([6]; 30 days): 19 ± 2^a %
- Trabecular Number Tb.N. ([6]; 30 days): 2.3 ± 0.1
- Trabecular Space Tb.Sp. ([6]; 30 days): 367 ± 28^a,c Φm
- Trabecular Thickness Tb.Th. ([6]; 30 days): 81 ± 5^a,c Φm
- Apposition Rate MAR ([6]; 90 days): 3.0 ± 0.1^a,c μm/d
- Bone Formation Rate BFR/BS ([6]; 90 days): 1.23 ± 4^a,c μm/d
- Mineralizing Surface MS/BS ([6]; 90 days): 41 ± 1^a,c %
- Osteoclast Surface Oc.PM ([6]; 90 days): 2.6 ± 0.5%
- Resorbing Surface E.PM ([6]; 90 days): 10.6 ± 1.3^c %
- Trabecular Area Tb.A. ([6]; 90 days): 38 ± 3^a,c %
- Trabecular Number Tb.N. ([6]; 90 days): 2.4 ± 0.2
- Trabecular Space Tb.Sp. ([6]; 90 days): 274 ± 34^a Φm
- Trabecular Thickness Tb.Th. ([6]; 90 days): 158 ± 6^a,c Φm
- Apposition Rate MAR ([6]; 180 days): 3.8 ± 0.7^c μm/d
- Bone Formation Rate BFR/BS ([6]; 180 days): 1.53 ± 28^a,c μm/d
- Mineralizing Surface MS/BS ([6]; 180 days): 40 ± 2^a,c %
- Osteoclast Surface Oc.PM ([6]; 180 days): 2.0 ± 0.4%
- Resorbing Surface E.PM ([6]; 180 days): 6.4 ± 1.5%
- Trabecular Area Tb.A. ([6]; 180 days): 38 ± 3^a,c %
- Trabecular Number Tb.N. ([6]; 180 days): 2.3 ± 0.1
- Trabecular Space Tb.Sp. ([6]; 180 days): 279 ± 29^a Φm
- Trabecular Thickness Tb.Th. ([6]; 180 days): 163 ± 8^a,c Φm
- bone in the right proximal tibia, photomicrographs ([6]; 90 days of treatment): not only restores lost bone but significantly increases trabecular bone volume over Sham

Molecule: hPTHrP-(1-74)
- EC50 [2]: 9.2 ± 1 nM
- affinity less than that of hPTHrP-(1-36) ([1]; RCM): 25 fold
- affinity less than that of hPTHrP-(1-36) ([7]; SaOS-2 cells): 9 fold

Molecule: hPTHrP-(37-74) (RATSEVSPNSKPSPNTKNHPVRFGSDDEGRYLTQETNK) [Human PTHrP fragment 37-74 prepared by solid phase synthesis]
- Binding (IC50) SaOS membranes [8]: did not inhibit binding
- Binding (IC50) Kidney membranes ([1]; human RCM, 30° C., 30 min): did not inhibit binding
- Binding (IC50) SaOS cells ([7]; intact cells, 15° C., 150 min): did not inhibit binding

Molecule: vitamin D
- increase in lumbar spine bone mineral density ([4]; two to three years of administration): ~2%

B1: bPTH-(1-84) (protein)
chain: AVSEIQFMHNLGKHLSSMERVEWLRKKLQDVHNFVALGASIAYRDGSSQRPRKKEDNVLVESHQKSLGEADKADVDVLIKAKPQ
notes: Bovine full-length parathyroid hormone from the National Hormone and Pituitary Program
- relative affinity less than the amino-terminal analogs ([1]; RCM and SaOS-2 membranes): approximately 10 fold
